Experimental data: patent US10106542B2, “Substituted 6,7-dihydropyrazolo[1,5-a]pyrazines as negative allosteric modulators of mGluR2 receptors” (Janssen Pharmaceutica NV, priority 2013, dated 2018)

What was measured:
[1] = biological target: T1, human mGlu2 receptor (Homo sapiens, UniProt Q14416); assay: [35S]GTPγS binding assay (mGluR2 negative allosteric modulation); type: biochemical; conditions: for IC50: membranes from CHO cells transfected with human mGlu2 receptor, glutamate 60 μM, pIC50 = −log IC50 (M), read-out: GTPγS - hmGluR2 anGT pIC50 (converted); for Emax: relative maximal effect: maximal % inhibition relative to the control glutamate response, read-out: GTPγS - hmGluR2 anGT Emax
T1 construct: expressed in transfected cells; host or cells: CHO cells (membrane preparation)
T1 sequence (Q14416 19-872): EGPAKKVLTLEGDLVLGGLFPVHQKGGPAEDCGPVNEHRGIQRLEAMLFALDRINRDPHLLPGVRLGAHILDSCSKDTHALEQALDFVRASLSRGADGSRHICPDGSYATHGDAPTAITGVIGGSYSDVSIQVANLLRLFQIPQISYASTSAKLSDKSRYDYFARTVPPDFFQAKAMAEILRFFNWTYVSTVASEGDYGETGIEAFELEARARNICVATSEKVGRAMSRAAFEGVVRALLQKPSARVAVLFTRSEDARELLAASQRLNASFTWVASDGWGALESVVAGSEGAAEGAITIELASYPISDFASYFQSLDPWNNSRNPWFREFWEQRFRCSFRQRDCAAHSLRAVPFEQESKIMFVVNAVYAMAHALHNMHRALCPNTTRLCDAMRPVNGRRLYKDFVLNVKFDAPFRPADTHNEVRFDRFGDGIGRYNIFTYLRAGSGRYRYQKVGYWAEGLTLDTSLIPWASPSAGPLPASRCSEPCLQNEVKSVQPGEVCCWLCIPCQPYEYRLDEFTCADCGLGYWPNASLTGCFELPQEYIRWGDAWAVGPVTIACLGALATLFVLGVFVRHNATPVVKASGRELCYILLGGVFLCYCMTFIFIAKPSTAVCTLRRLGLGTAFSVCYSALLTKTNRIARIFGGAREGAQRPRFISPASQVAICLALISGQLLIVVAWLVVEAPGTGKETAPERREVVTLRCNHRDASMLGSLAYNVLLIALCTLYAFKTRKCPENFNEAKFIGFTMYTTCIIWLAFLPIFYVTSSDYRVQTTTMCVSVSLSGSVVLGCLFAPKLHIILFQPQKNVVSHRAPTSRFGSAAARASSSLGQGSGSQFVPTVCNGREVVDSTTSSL
Outline: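 Negative allosteric modulation read as [35S]GTPγS (0.1 nM) incorporation over 30 min at 30 °C, expressed as % of the response to an EC80-equivalent glutamate concentration. Assay used 7 μg human mGlu2 CHO membrane protein in HEPES pH 7.4 buffer with NaCl, MgCl2, GDP and saponin; bound label collected by filtration.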

Row | Compound | IC50 [1] | Emax [1] | melting point
1 | C[C@H]1CN(c2ccc(Cl)cc2)C(=O)c2c(-c3ccncc3)cnn21 [compound 73] | 1.29e-07 M | 102% | 144.3 °C
2 | CCOc1cc(N2CC(CO)n3ncc(-c4ccnc(C)c4)c3C2=O)ccc1C(F)(F)F (stereo not drawn) [compound 74] | 2.14e-07 M | 100% | 99.1 °C
3 | Cc1cc(-c2cnn3c2C(=O)N(c2ccc(OCCF)c(C(F)(F)F)c2)C[C@@H]3C)ccn1 [compound 77, (7S)-5-[4-(2-Fluoroethoxy)-3-(trifluoromethyl)phenyl]-7-methyl-3-(2-methyl-4-pyridyl)-6,7-dihydropyrazolo[1,5-a]pyrazin-4-one] | 3.89e-07 M | 101% | 60.8 °C
4 | COc1cc(N2C[C@H](C)n3ncc(-c4ccnc(C)c4)c3C2=O)cc(F)c1F [compound 84] | 8.13e-07 M | 104% | 101.2 °C
5 | COc1cc(F)cc(N2C[C@H](C)n3ncc(-c4ccnc(C)c4)c3C2=O)c1 [compound 85] | 9.55e-07 M | 101% | 133 °C
6 | COc1cc(-c2cnn3c2C(=O)N(c2ccc(C(F)(F)F)c(C#N)c2)C[C@@H]3C)ccn1 [compound 88] | 4.07e-08 M | 102% | 157.75 °C (dec.)
7 | C[C@H]1CN(c2ccc(C(F)(F)F)cc2)C(=O)c2c(-c3ccnc(N4CC(O)C4)c3)cnn21 [compound 101] | 4.07e-07 M | 109% | > 300 °C
8 | C[C@H]1CN(c2ccc(C(F)(F)F)cc2)C(=O)c2c(-c3ccnc(N4CCCC4)c3)cnn21 [compound 105] | 2.75e-08 M | 108% | 124 °C
9 | C[C@H]1CN(c2ccc(C(F)(F)F)cc2)C(=O)c2c(-c3ccnc(N4CCOCC4)c3)cnn21 [compound 108] | 1.23e-07 M | 108% | 128.1 °C
10 | C[C@H]1CN(c2ccc(Cl)c(Cl)c2)C(=O)c2c(-c3ccnc(C#N)c3)cnn21 [compound 109] | 1.86e-08 M | 107% | 149.8 °C
11 | CC(O)c1cc(-c2cnn3c2C(=O)N(c2ccc(Cl)c(Cl)c2)C[C@@H]3C)ccn1 (stereo partly drawn) [compound 111, (7S)-5-(3,4-Dichlorophenyl)-3-[2-(1-hydroxyethyl)-4-pyridyl]-7-methyl-6,7-dihydropyrazolo[1,5-a]pyrazin-4-one] | 2.95e-07 M | 108% | > 300 °C
12 | C[C@H]1CN(c2ccc(C(F)(F)F)cc2)C(=O)c2c(-c3ccnc(CF)c3)cnn21 [compound 112] | 3.55e-08 M | 103% | 154.9 °C
13 | C[C@H]1CN(c2ccc(Cl)c(Cl)c2)C(=O)c2c(-c3ccnc(C(F)F)c3)cnn21 [compound 114] | 7.08e-09 M | 104% | 177.6 °C
14 | CCOc1cc(-c2cnn3c2C(=O)N(c2ccc(C(F)(F)F)cc2)C[C@@H]3C)ccn1 [compound 123] | 6.61e-09 M | 107% | 189.5 °C
15 | CC(C)c1cc(-c2cnn3c2C(=O)N(c2ccc(Cl)c(Cl)c2)C[C@@H]3C)ccn1 [compound 124] | 3.02e-09 M | 108% | 62.4 °C
16 | C[C@H]1CN(c2ccc(Cl)c(Cl)c2)C(=O)c2c(-c3ccnc(CO)c3)cnn21 [compound 125, (7S)-5-(3,4-Dichlorophenyl)-3-[2-(hydroxymethyl)-4-pyridyl]-7-methyl-6,7-dihydropyrazolo[1,5-a]pyrazin-4-one] | 1.78e-07 M | 105% | 105.4 °C
17 | CC(C)c1cc(-c2cnn3c2C(=O)N(c2ccc(C(F)(F)F)cc2)C[C@@H]3C)ccn1 [compound 126, (7S)-3-(2-Isopropyl-4-pyridyl)-7-methyl-5-[4-(trifluoromethyl)phenyl]-6,7-dihydropyrazolo[1,5-a]pyrazin-4-one] | 5.75e-09 M | 108% | 70.5 °C
18 | CC(O)c1cc(-c2cnn3c2C(=O)N(c2ccc(C(F)(F)F)cc2)C[C@@H]3C)ccn1 (stereo partly drawn) [compound 128] | 5.89e-07 M | 104% | 139.8 °C
19 | CC[C@@H]1CN(c2ccc(C(F)(F)F)cc2)C(=O)c2c(-c3ccnc(C)c3)cnn21 [compound 129] | 6.92e-07 M | 100% | 135.1 °C
20 | CC[C@H]1CN(c2ccc(C(F)(F)F)cc2)C(=O)c2c(-c3ccnc(C)c3)cnn21 [compound 130] | 1.7e-08 M | 102% | 134.4 °C
21 | C[C@H]1CN(c2ccc(C(F)(F)F)cc2)C(=O)c2c(-c3ccnc(C(F)F)c3)cnn21 [compound 131] | 2.45e-08 M | 105% | 134.7 °C
22 | Cc1cc(-c2cnn3c2C(=O)N(c2cc(F)c(C(F)(F)F)c(F)c2)C[C@@H]3C)ccn1 [compound 132] | 2.4e-08 M | 103% | 148 °C

Row | Compound | IC50 [1] | Emax [1] | melting point
23 | Cc1cc(-c2cnn3c2C(=O)N(c2ccc(C4(C(F)(F)F)CC4)cc2)C[C@@H]3C)ccn1 [compound 136] | 4.37e-08 M | 102% | 126.2 °C
24 | COCC1CN(c2ccc(Cl)c(Cl)c2)C(=O)c2c(-c3ccnc(C)c3)cnn21 (stereo not drawn) [compound 143] | 2.45e-08 M | 104% | > 300 °C
25 | COc1cc(-c2cnn3c2C(=O)N(c2ccc(C(F)(F)F)cc2)C[C@@H]3C)cc(C)n1 [compound 145] | 1.86e-08 M | 105% | 57.5 °C
26 | COc1cc(-c2cnn3c2C(=O)N(c2ccc(Cl)c(Cl)c2)C[C@@H]3C)cc(C)n1 [compound 146] | 1.66e-08 M | 105% | 166.8 °C
27 | COc1ccc(-c2cnn3c2C(=O)N(c2ccc(C(F)(F)F)cc2)C[C@@H]3C)cn1 [compound 150] | 4.68e-07 M | 103% | > 300 °C
28 | C[C@H]1CN(c2ccc(C(F)(F)F)cc2)C(=O)c2c(-c3ccc(C#N)nc3)cnn21 [compound 151] | 1.2e-06 M | 103% | 157.6 °C
29 | Cc1cc(N2C[C@H](C)n3ncc(-c4ccncc4)c3C2=O)ccc1C(F)(F)F [compound 153] | 1.45e-08 M | 103% | 162 °C
30 | C[C@H]1CN(c2ccc(C(F)(F)F)c(C#N)c2)C(=O)c2c(-c3ccncc3)cnn21 [compound 155] | 8.13e-08 M | 103% | 101.8 °C
31 | Cc1cc(-c2cnn3c2C(=O)N(c2ccc(C(F)(F)F)c(C)c2)C[C@@H]3C)cc(C)n1 [compound 157] | 8.71e-09 M | 104% | 158.9 °C
32 | COCc1cc(N2C[C@H](C)n3ncc(-c4ccnc(C)c4)c3C2=O)ccc1C(F)(F)F [compound 158] | 2.51e-08 M | 106% | 48.2 °C
33 | Cc1cc(-c2cnn3c2C(=O)N(c2cc(Cl)cc(Cl)c2)C[C@@H]3C)ccn1 [compound 159] | 1.35e-08 M | 104% | 71.5 °C
34 | Cc1cc(-c2cnn3c2C(=O)N(c2ccc(OCC(F)(F)F)cc2)C[C@@H]3C)ccn1 [compound 160] | 1.07e-07 M | 106% | 129.5 °C
35 | Cc1cc(-c2cnn3c2C(=O)N(c2ccc(C(F)F)cc2)C[C@@H]3C)ccn1 [compound 162] | 1.29e-07 M | 102% | 185.9 °C
36 | C[C@H]1CN(c2ccc(Cl)c(Cl)c2)C(=O)c2c(-c3ccnc(F)c3)cnn21 [compound 164] | 5.5e-09 M | 107% | 170.3 °C
37 | Cc1cc(-c2cnn3c2C(=O)N(c2ccc(OC(F)F)c(Cl)c2)C[C@@H]3C)ccn1 [compound 168] | 2.51e-08 M | 106% | 108.5 °C
38 | Cc1cc(-c2cnn3c2C(=O)N(c2ccc(Cl)c(OC(F)(F)F)c2)C[C@@H]3C)ccn1 [compound 169] | 6.03e-09 M | 105% | 64.7 °C
39 | Cc1cc(-c2cnn3c2C(=O)N(c2ccc(C(F)(F)F)cc2)CC3(C)C)ccn1 [compound 171] | 1.7e-05 M | 94% | 158.8 °C
40 | Cc1cc(-c2cnn3c2C(=O)N(c2ccc(C(F)F)c(Cl)c2)C[C@@H]3C)ccn1 [compound 174] | 1e-08 M | 105% | 127.5 °C
41 | C[C@H]1CN(c2ccc(C(F)(F)F)cc2)C(=O)c2c(-c3ccnc(N4CCNCC4)c3)cnn21.Cl [compound 175, (7S)-7-Methyl-3-(2-piperazin-1-yl-4-pyridyl)-5-[4-(trifluoromethyl)phenyl]-6,7-dihydropyrazolo[1,5-a]pyrazin-4-one hydrochloride salt] | 1.35e-06 M | 102% | 220.8 °C
42 | C[C@H]1CN(c2ccc(C(F)(F)F)cc2)C(=O)c2c(-c3ccc(N4CCNCC4)nc3)cnn21 [compound 176, (7S)-7-Methyl-3-(6-piperazin-1-yl-3-pyridyl)-5-[4-(trifluoromethyl)phenyl]-6,7-dihydropyrazolo[1,5-a]pyrazin-4-one] | 6.31e-06 M | 85% | > 300 °C
43 | CNc1cc(-c2cnn3c2C(=O)N(c2ccc(C(F)(F)F)c(OC)c2)C[C@@H]3C)ccn1 [compound 183] | 2.29e-08 M | 103% | 125.6 °C
